{
  "source": "patent US5994334A",
  "about": "“Androgen synthesis inhibitors” (priority 1997, dated 1999)",
  "key": {"[1]": {"target": "17α-hydroxylase", "details": "[3H]-progesterone substrate; read-out: IC50 17α-hydroxylase (Potter et al.); cited from earlier work"}, "[2]": {"target": "C17,20-lyase", "details": "[3H]-progesterone substrate; read-out: IC50 C17,20-lyase (Potter et al.); cited from earlier work"}, "[3]": {"system": "5α-reductase", "details": "cited from earlier work"}, "[4]": {"system": "breast cancers in postmenopausal patients", "details": "human, in vivo; cited from earlier work"}, "[5]": {"target": "human androgen receptor (AR) (Homo sapiens, UniProt P10275)", "sequence (P10275 whole entry)": "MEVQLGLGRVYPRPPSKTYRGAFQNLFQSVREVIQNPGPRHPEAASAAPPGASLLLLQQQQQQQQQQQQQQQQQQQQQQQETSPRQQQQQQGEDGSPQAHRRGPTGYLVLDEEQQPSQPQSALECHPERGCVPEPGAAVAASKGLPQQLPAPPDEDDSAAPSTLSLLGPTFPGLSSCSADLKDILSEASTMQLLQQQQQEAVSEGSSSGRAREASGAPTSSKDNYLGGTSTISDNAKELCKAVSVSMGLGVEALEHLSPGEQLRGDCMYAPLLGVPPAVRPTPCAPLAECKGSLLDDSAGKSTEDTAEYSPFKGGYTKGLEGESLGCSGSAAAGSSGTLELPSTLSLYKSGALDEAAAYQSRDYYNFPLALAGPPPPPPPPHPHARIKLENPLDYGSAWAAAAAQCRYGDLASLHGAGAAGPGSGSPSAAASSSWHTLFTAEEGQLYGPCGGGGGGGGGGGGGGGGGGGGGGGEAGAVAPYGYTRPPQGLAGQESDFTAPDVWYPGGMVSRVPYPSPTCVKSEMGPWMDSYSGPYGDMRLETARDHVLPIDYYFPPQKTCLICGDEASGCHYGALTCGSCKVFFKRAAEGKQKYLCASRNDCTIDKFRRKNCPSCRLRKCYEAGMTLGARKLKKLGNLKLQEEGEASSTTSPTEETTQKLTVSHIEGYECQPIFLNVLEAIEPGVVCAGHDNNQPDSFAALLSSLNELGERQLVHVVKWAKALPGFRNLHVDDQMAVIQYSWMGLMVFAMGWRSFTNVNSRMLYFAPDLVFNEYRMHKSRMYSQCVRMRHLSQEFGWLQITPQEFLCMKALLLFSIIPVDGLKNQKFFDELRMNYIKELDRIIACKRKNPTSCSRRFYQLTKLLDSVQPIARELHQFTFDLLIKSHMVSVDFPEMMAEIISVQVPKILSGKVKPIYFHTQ", "assay": "Androgen receptor-mediated gene transcription, wild-type AR (luciferase, CV1 cells)", "assay_type": "cell-based", "details": "against DHT stimulation"}, "[6]": {"system": "mutant AR which is expressed in LNCaP cells", "assay": "Androgen receptor-mediated gene transcription, mutant AR of LNCaP cells (luciferase, CV1 cells)", "assay_type": "cell-based, human"}, "[7]": {"system": "LNCaP human prostatic cancer cell line", "assay": "Androgen-dependent growth of LNCaP cells", "details": "for reversal of DHT-stimulated LNCaP growth (in words): 0.03 nM DHT; for stimulation of LNCaP cell proliferation (in words): hydroxyflutamide 0.3-1 μM", "procedure": "The ability of various inhibitors to reverse the stimulatory effect of testosterone on the growth of the LNCaP human prostatic cancer cell line was tested by comparing cell number in wells treated for 9 days with either drug vehicle only (control), 0.1 nM testosterone only, or 0.1 nM testosterone with inhibitor at 0.3, 1, 2.5, or 5 μM."}, "[8]": {"target": "rat 17α-hydroxylase (Rattus norvegicus, UniProt P11715)", "sequence (P11715 whole entry)": "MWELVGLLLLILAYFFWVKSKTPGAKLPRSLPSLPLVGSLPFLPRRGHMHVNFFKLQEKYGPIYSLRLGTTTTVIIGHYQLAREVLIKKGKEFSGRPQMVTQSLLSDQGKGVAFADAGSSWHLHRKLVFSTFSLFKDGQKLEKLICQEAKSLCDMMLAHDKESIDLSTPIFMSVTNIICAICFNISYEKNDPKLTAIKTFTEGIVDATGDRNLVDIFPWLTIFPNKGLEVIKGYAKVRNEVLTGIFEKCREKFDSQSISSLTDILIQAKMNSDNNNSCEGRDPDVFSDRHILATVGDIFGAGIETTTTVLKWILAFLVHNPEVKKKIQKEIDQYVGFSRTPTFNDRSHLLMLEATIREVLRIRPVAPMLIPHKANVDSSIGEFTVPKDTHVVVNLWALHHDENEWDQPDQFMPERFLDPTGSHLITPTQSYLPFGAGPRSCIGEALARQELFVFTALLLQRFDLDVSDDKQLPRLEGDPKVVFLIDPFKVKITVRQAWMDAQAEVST", "assay": "Inhibition kinetics of rat 17α-hydroxylase, progesterone substrate", "assay_type": "biochemical", "source_text": "(§1) Studies in normal male rats have been carried out with 4-pregnen-3-one-20β-carboxaldehyde (I-16) (Li et al., 1992) and with its 20-carboxaldoxime (I-23)(Li et al., 1995)."}, "[9]": {"target": "rat C17,20-lyase (Rattus norvegicus, UniProt P11715)", "sequence (P11715 whole entry)": "as above", "assay": "Inhibition kinetics of rat C17,20-lyase, 17α-hydroxyprogesterone substrate", "assay_type": "biochemical", "details": "17α-hydroxyprogesterone as substrate; vs. Km 76 nM", "source_text": "as §1"}, "[10]": {"system": "normal male rats", "assay": "In vivo studies in normal male rats: hormone levels", "set-up": "species or system rat", "source_text": "as §1"}, "[11]": {"system": "rat 17α-hydroxylase/C17,20-lyase", "assay": "Inhibition of rat 17α-hydroxylase/C17,20-lyase", "assay_type": "biochemical", "source_text": "as §1"}, "[12]": {"target": "T1, Human Prostatic 5α-Reductase (Homo sapiens, UniProt P31213)", "T1 sequence (P31213 1-254)": "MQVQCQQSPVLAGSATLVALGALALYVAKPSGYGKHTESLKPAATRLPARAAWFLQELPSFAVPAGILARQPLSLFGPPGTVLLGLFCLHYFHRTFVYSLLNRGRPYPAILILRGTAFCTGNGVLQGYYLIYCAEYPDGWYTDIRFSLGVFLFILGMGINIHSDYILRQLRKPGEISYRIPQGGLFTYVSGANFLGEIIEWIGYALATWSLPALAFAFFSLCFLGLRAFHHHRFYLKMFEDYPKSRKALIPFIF", "assay": "biochemical"}, "[13]": {"target": "T1, Human Prostatic 5α-Reductase", "assay": "Inhibition of human prostatic 5α-reductase (prostatic microsomes, [3H]testosterone)", "details": "for IC50: IC50 5α-reductase; for inhibition at 0.01 µM: read-out: % Inhibition of 5α-reductase, [I] 10 nM; for inhibition at 0.1 µM: read-out: % Inhibition of 5α-reductase, [I] 100 nM"}, "[14]": {"system": "5α-reductase Type I and Type II isoforms", "details": "cited from earlier work"}, "[15]": {"system": "BPH patients", "details": "cited from earlier work; for serum testosterone levels (in words): human, in vivo"}, "[16]": {"system": "TRPM-2 gene", "details": "vs castration; cited from earlier work"}, "[17]": {"system": "17α-hydroxylase/C17,20-lyase", "details": "cited from earlier work"}, "[18]": {"system": "cytochrome P450 steroidogenic enzymes", "details": "human, in vivo; cited from earlier work"}, "[19]": {"system": "dogs", "details": "vs finasteride; cited from earlier work"}, "[20]": {"details": "in vivo; cited from earlier work"}, "[21]": {"system": "human prostatic tissue (BPH or prostate cancer)", "assay": "Prostate tissue in histoculture, DNA synthesis ([3H]-thymidine uptake)", "details": "inhibitor 1 μM; testosterone 1 μM; FIG. 1", "procedure": "We recently developed a histoculture method to evaluate the growth inhibiting properties of the compounds on human prostatic tissue. […] The tissue samples were then incubated for 3 days in fresh medium/treatment containing 2 μCi/ml [^3 H]-thymidine. Tissue was then digested and DNA extracted. For each sample, [^3 H]-thymidine uptake was normalized to DNA content. […] This finding is consistent with the compound acting as an antiandrogen. None of the compounds produced an independent effect on DNA synthesis in the absence of added androgens."}, "[22]": {"system": "patients with prostatic cancer", "details": "combined with GnRH or orchidectomy vs GnRH agonist or orchidectomy alone; cited from earlier work"}, "[23]": {"system": "mutant androgen receptor", "details": "cited from earlier work"}, "[24]": {"details": "50 mg/kg/day sc, 21 days, vs control"}, "[25]": {"details": "50 mg/kg/day sc, 21 days, vs vehicle"}},
  "data": [
    {"smiles": "C[C@]12CC[C@H](O)CC1=CC[C@@H]1[C@@H]2CC[C@]2(C)C(c3cccnc3)=CC[C@@H]12", "note": "[CB7598, 17-(3'-pyridyl)androsta-5,16-diene-3-ol]", "values": [
      {"measurement": "IC50", "setting": "[1]", "value": 4, "unit": "nM"},
      {"measurement": "IC50", "setting": "[2]", "value": 2.9, "unit": "nM"},
      {"measurement": "inhibition of 5α-reductase, literature (in words)", "setting": "[3]", "value": "no activity"}
    ]},
    {"smiles": "C[C@]12CCC(=O)C(O)=C1CC[C@@H]1[C@@H]2CC[C@]2(C)C(=O)CC[C@@H]12", "note": "[Compound 4-OHA, 4-hydroxyandrostene-3,17-dione]", "values": [
      {"measurement": "side effects (in words)", "setting": "[4]", "value": "without significant side effects"}
    ]},
    {"smiles": "C[C@H](C=NO)[C@H]1CC[C@H]2[C@@H]3CCC4=CC(=O)CC[C@]4(C)[C@H]3CC[C@]12C", "note": "[Compound I-23, 3-oxo-4-pregnene-20β-carboxaldehyde oxime]", "values": [
      {"measurement": "antagonism of wild-type AR (in words)", "setting": "[5]", "value": "dose-dependent antagonism"},
      {"measurement": "agonism/antagonism at mutant AR of LNCaP cells (in words)", "setting": "[6]", "value": "agonists"},
      {"measurement": "reversal of DHT-stimulated LNCaP growth (in words)", "setting": "[7]", "value": "stimulation of growth above the level produced by DHT"},
      {"measurement": "stimulation of LNCaP cell proliferation (in words)", "setting": "[7]; 0.1 nM testosterone", "value": "stimulated cell proliferation"},
      {"measurement": "Ki", "setting": "[8]", "value": 74, "unit": "nM"},
      {"measurement": "Ki", "setting": "[9]", "value": 18, "unit": "nM"},
      {"measurement": "decrease of prostatic DHT", "setting": "[10]; [24]", "value": 44, "unit": "%"},
      {"measurement": "decrease of prostatic testosterone", "setting": "[10]; [24]", "value": 60, "unit": "%"},
      {"measurement": "serum LH concentration (in words)", "setting": "[10]; [24]", "value": "unchanged"},
      {"measurement": "reduction of serum testosterone", "setting": "[10]; [25]", "value": 65, "unit": "%"},
      {"measurement": "reduction of testicular testosterone", "setting": "[10]; [25]", "value": 59, "unit": "%"},
      {"measurement": "reduction of testosterone and DHT levels in serum, testicular and prostatic tissues (in words)", "setting": "[10]; rat", "value": "significantly reducing testosterone and DHT levels"},
      {"measurement": "inhibition of rat 17α-hydroxylase/C17,20-lyase (in words)", "setting": "[11]", "value": "inhibit rat 17α-hydroxylase/C17,20 -lyase"},
      {"measurement": "Ki", "setting": "[12]", "value": 1.4, "unit": "nM"},
      {"measurement": "IC50", "setting": "[13]; Table 2", "value": 106, "unit": "nM"},
      {"measurement": "inhibition of 5α-reductase (in words)", "setting": "[13]; NI = no inhibition", "value": "potent inhibition of 5α-reductase"},
      {"measurement": "inhibition at 0.01 µM", "setting": "[13]", "value": 14.7, "unit": "%"},
      {"measurement": "inhibition at 0.1 µM", "setting": "[13]", "value": 85.8, "unit": "%"}
    ]},
    {"smiles": "CC(C)(C)NC(=O)[C@H]1CC[C@H]2[C@@H]3CC[C@H]4NC(=O)C=C[C@]4(C)[C@H]3CC[C@]12C", "note": "[Finasteride, reference compound]", "values": [
      {"measurement": "reversal of DHT-stimulated LNCaP growth (in words)", "setting": "[7]", "value": "dose-dependent reversal"},
      {"measurement": "reversal of testosterone-stimulated LNCaP growth at 5 μM (in words)", "setting": "[7]; 0.1 nM testosterone, inhibitor 5 μM", "value": "almost completely reversed"},
      {"measurement": "reversal of testosterone-stimulated LNCaP growth (in words)", "setting": "[7]; 0.1 nM testosterone, inhibitor 0.3-5 μM, 9 days", "value": "dose-dependent reversal"},
      {"measurement": "IC50", "setting": "[7]; Homo sapiens, LNCaP, 216 h, read-out: concentration reducing the stimulatory effect of testosterone by 50%", "value": "≤ 1000", "unit": "nM"},
      {"measurement": "potency at 5α-reductase Type II vs Type I (in words)", "setting": "[14]", "value": "more potent inhibitor of the Type II than of the Type I isoform"},
      {"measurement": "serum testosterone levels (in words)", "setting": "[15]", "value": "increase serum testosterone levels"},
      {"measurement": "gynecomastia in long-term treatment (in words)", "setting": "[15]; long-term treatment", "value": "some patients developed gynecomastia which led to breast cancer in a few cases"},
      {"measurement": "reduction of serum DHT", "setting": "[15]; patients", "value": "65-80%"},
      {"measurement": "TRPM-2 expression (in words)", "setting": "[16]", "value": "not by finasteride treatment"},
      {"measurement": "IC50", "setting": "[13]", "value": 14, "unit": "nM"},
      {"measurement": "IC50", "setting": "[13]; Table 2", "value": 14, "unit": "nM"},
      {"measurement": "IC50", "setting": "[13]; Table 3, NI = no inhibition", "value": 14.4, "unit": "nM"},
      {"measurement": "inhibition at 0.01 µM", "setting": "[13]", "value": 41.2, "unit": "%"},
      {"measurement": "inhibition at 0.1 µM", "setting": "[13]", "value": 88.3, "unit": "%"},
      {"measurement": "inhibition at 0.4 µM", "setting": "[13]; read-out: % Inhibition of 5α-reductase, [I] 400 nM", "value": 93, "unit": "%"}
    ]},
    {"smiles": "CC(=O)N1CCN(c2ccc(OCC3COC(Cn4ccnc4)(c4ccc(Cl)cc4Cl)O3)cc2)CC1", "note": "(stereo not drawn) [Ketoconazole]", "values": [
      {"measurement": "IC50", "setting": "[2]", "value": 26, "unit": "nM"},
      {"measurement": "inhibition of 17α-hydroxylase/C17,20-lyase, literature (in words)", "setting": "[17]", "value": "not very potent"},
      {"measurement": "side-effects (in words)", "setting": "[18]", "value": "inhibition of several other cytochrome P450 steroidogenic enzymes, and reduction of cortisol production"}
    ]},
    {"smiles": "C[C@]12C=CC(=O)N[C@@H]1CC[C@@H]1[C@@H]2CC[C@]2(C)[C@@H](C(=O)c3ccccc3)CC[C@@H]12", "note": "[MK-434]", "values": [
      {"measurement": "serum testosterone levels (in words)", "setting": "[15]", "value": "increase serum testosterone levels"},
      {"measurement": "reduction of prostatic DHT in dogs (in words)", "setting": "[19]", "value": "reduces prostatic DHT levels in dogs more effectively than finasteride"}
    ]},
    {"smiles": "CC(=O)[C@H]1CC[C@H]2[C@@H]3CCC4=CC(=O)CC[C@]4(C)[C@H]3CC[C@]12C", "note": "[Progesterone]", "values": [
      {"measurement": "inhibition of 5α-reductase, literature (in words)", "setting": "[3]", "value": "potent 5α-reductase inhibitor"},
      {"measurement": "metabolism and oral activity (in words)", "setting": "[20]", "value": "rapid metabolism in the body and lack of oral activity"}
    ]},
    {"smiles": "CC(C)C(=O)Nc1ccc([N+](=O)[O-])c(C(F)(F)F)c1", "note": "[flutamide, reference compound]", "values": [
      {"measurement": "reversal of testosterone-stimulated DNA synthesis (in words), 1 μM", "setting": "[21]", "value": "almost complete reversal"},
      {"measurement": "progression-free survival (in words)", "setting": "[22]", "value": "increased progression-free survival time"}
    ]},
    {"smiles": "CC(C)(O)C(=O)Nc1ccc([N+](=O)[O-])c(C(F)(F)F)c1", "note": "[hydroxyflutamide, reference compound]", "values": [
      {"measurement": "stimulation of LNCaP cell proliferation (in words)", "setting": "[7]; 0.1 nM testosterone", "value": "stimulated cell proliferation"},
      {"measurement": "effect on mutant AR / prostatic cell growth (in words)", "setting": "[23]", "value": "agonist activity for the mutant androgen receptor of LNCaP cells"}
    ]}
  ]
}
